By MIC is commonly meant the least concentration at which growth counts as inhibited.

Entries after “also recorded” stand apart in the source; their conditions may differ. Read-outs that look alike come from different tables or passages of the source.

Results on nine molecules are retold here after patent US20250222066A1, “COMPOSITIONS AND METHODS OF TREATING, PREVENTING OR INHIBITING A FACULTATIVE ANAEROBE INFECTION” (UNIVERSITY OF UTAH RESEARCH FOUNDATION, priority 2022, published 2025).

For one test, the system named is K. pneumoniae. Description: Minimum inhibitory concentration (MIC) assay, planktonic bacteria. It is filed as cell-based, Klebsiella pneumoniae. Conditions: for 1:1 combinations MIC is the sum of both compounds. Here is the method: (§1) For comparison to these biofilm tests with adjunctive metronidazole, the MIC was determined for each organism and each compound tested.

The test system of another test is E. coli. The test is described as above. Type of test: cell-based, Escherichia coli. The note with it: for 1:1 combinations MIC is the sum of both compounds. Here is the method: as §1
A further test relates to MRSA USA300. The test is described as above. It is filed as cell-based. Conditions: for 1:1 combinations MIC is the sum of both compounds. Here is the method: as §1
Another test has as its system A. baumannii. Described as above. It is filed as cell-based. Conditions: for 1:1 combinations MIC is the sum of both compounds. As for the experimental part:
as §1

The subject of the next test is P. aeruginosa. The test is described as above. It is filed as cell-based. Conditions: for 1:1 combinations MIC is the sum of both compounds. Here is the method:
as §1

The subject of test [1] is S. aureus ATCC 6538 biofilms. Description: CDC biofilm reactor coupons, 24 h antibiotic treatment, bioburden by serial dilution plating. It is filed as cell-based. Conditions: for synergy of the companion antibiotic with metronidazole against biofilms: 24 h treatment; for eradication of biofilms: concentrations over 60,000 X the MIC, 6,000 X the nephrotoxic and ototoxic thresholds, 25-50 X the cytotoxic limit; for anti-biofilm efficacy of hypoxia-activated prodrug compared with antibiotic controls: 1 mM compound with 1 mM nafcillin or 1 mM gentamicin, 24 h. As for the experimental part:
For determining the broad-spectrum utility of metronidazole, respective bacterial species were grown into stationary biofilms using a 2- or 3-day species-specific growth protocol in a CDC biofilm reactor on standard 0.5 in polycarbonate coupons. Each reactor holds up to 24 coupons/samples with adherent biofilms. Bacterial bioburden, represented as colony forming units (CFUs), from five reactor samples/coupons (n=5) were quantified by first dispersing the bacterial biofilms in 2 ml of PBS by standardized vortex-sonication technique and serial-dilution plating. Importantly, this quantification technique provides bioburden data with logarithmic sensitivity. […] The gray shaded regions represent standard deviations.
(§2) Three groups of 5 coupons/samples (n=5) were placed into 2 ml treatments either containing 0.5-1 mg/ml of gentamicin, metronidazole, or combinations thereof (in CAMHB) and incubated for 24 h at 37° C. Importantly, the total antibiotic concentration (mg/ml) was fixed for each sample to enable assessment of compound synergy.
After the 24 h treatment, the bacteria adhered to coupons were quantified by rinsing the samples very gently in excess PBS followed by vortexing and sonicating to disperse the biofilm in 2 ml PBS and subsequent serial-dilution plating. The bioburden of the adhered bacteria is represented by the blue bars in FIG. 1. […] Broth bioburden is represented by the red bars in FIG. 1.
Twelve hypoxia activated prodrugs from three categories were tested: nitroimidazoles (same class as metronidazole), nitrofurans, and anti-tumor agents.
To test each compound, the contents of an entire CDC-biofilm reactor (24 coupons/biofilm samples) were used (see FIG. 2 and FIG. 3). […] Using the methods described above, 4 reactor samples/coupons served as reactor controls. The remaining 20 samples/coupons were split into 4 treatment groups of 5 samples each (n=5).
For testing against S. aureus biofilms, the compounds were prepared at a concentration of 1 mM in CAMHB; coupons were treated in 2 ml for 24 h. Compounds were intentionally prepared in units of molarity rather than the more common weight/volume ratios of clinicians.
This choice was made for two reasons.
Two of the treatment groups were the same for each test: one in 1 mM nafcillin (a β-lactam antibiotic) and a second in 1 mM gentamicin. […] For comparison for most compounds 1 mM ranges from ˜0.15-0.5 mg/ml, 1 or 2 Log 2 dilutions below tests in FIG. 1. […] The other compounds were tested at the same concentrations.
Quantification of the post-treatment residual bioburden was performed by dispersing biofilm bacteria into the 2 ml treatments with its constituent bacteria by vortexing, and sonicating. […] The pelleted bacteria were resuspended and measured by the serial dilution plating technique. Thus, the values presented in FIGS. 2, 3 and 4 represent the cumulative change in bioburden from the surface-attached biofilms and bacteria in the treatments.

The subject of the next test is S. epidermidis. The test is described as follows: Minimum inhibitory concentration (MIC) assay, planktonic bacteria. Type of test: cell-based, Staphylococcus epidermidis. Conditions: for MIC: Staphylococcus epidermidis, for 1:1 combinations MIC is the sum of both compounds. As for the experimental part:
as §2, §1

The test system of a further test is S. aureus. The description is as above. It is filed as cell-based.
Text: Shortcomings of clinical antibiotic susceptibility assays. The antibiotic-susceptibility assays used to guide clinical treatment and prophylaxis rely on actively-dividing planktonic bacteria (Williams, D. L. & Costerton, J. W. J Biomed Mat Res B 100, 1163-1169 (2011)). Among the assays performed by clinical reference laboratories are the minimum inhibitory concentration (MIC), and disk diffusion (Kirby-Bauer) assays. The ubiquity of these assays is owed to the fact that they are high throughput, relatively quick to perform, repeatable, and have short turnaround times. They inform clinicians regarding which antibiotic are applicable for a given infection from a simple site swab, blood, or aspirate sample. […] Thus, when a compound, such as metronidazole performs poorly in an MIC assay, a physician would be thoroughly dissuaded from using it. Likewise, in drug-development, a high MIC value would exclude potentially useful anti-biofilm agents from candidate drug libraries. […] Using orthodox clinical methodology, there would be no basis to administer metronidazole in the treatment of a S. aureus-related infections, despite its exceptional efficacy against bacterial biofilms of the same isolates. The MIC assay fails to provide any information about susceptibility profiles of bacteria that reside in the biofilm phenotype.
as §1

Test [2] has as its system biofilm-contaminated fixation plates. Description: Sheep model of biofilm-related orthopedic (musculoskeletal) infection. It is filed as in vivo. As for the experimental part: Use of the Pouch device in a sheep model of biofilm-related orthopedic infection. The Pouch device and two clinical standards of care (IV-vancomycin, and gentamicin-loaded Stimulan® beads) were tested in a sheep model of biofilm-related orthoepic infection. Briefly, the proximal medial aspect of the right tibia is subjected to a blast from an air cannon to simulate traumatic soft tissue damage. In a surgical procedure, the periosteum is stripped, and two biofilm-contaminated fixation plates are situated above osteotomized fractures. At necropsy, one of the fixation plates and the surrounding tissue serve for microbiological analysis whereas the plate and tissues of the second site are used for histological analysis. Four groups of sheep (n=5/group) were used in testing. The first group served as a positive control of infection. The Pouch device was tested in one group. The Pouch device was placed during the surgery and refilled daily for 10 days with 480 mg of gentamicin sulfate, 1 g of vancomycin, and 36 mg of rifampin. Ten days after surgery the Pouch device was removed, and the sheep monitored for an additional 11 days; endpoint was 21 days for the groups. For comparison, clinical standards of care were tested in the remaining two groups: IV vancomycin, and Gentamicin-loaded Stimulan® beads. […]

The subject of test [3] is P. aeruginosa ATCC 27853 biofilms. The test is described as follows: CDC biofilm reactor coupons, 24 h antibiotic treatment, bioburden by serial dilution plating. Type of test: cell-based. The note with it: for anti-biofilm efficacy of hypoxia-activated prodrug compared with antibiotic controls: 1 mM compound with cefepime or 0.1 mM gentamicin, 24 h. As for the experimental part: Twelve hypoxia activated prodrugs from three categories were tested: nitroimidazoles (same class as metronidazole), nitrofurans, and anti-tumor agents. For the screening, S. aureus ATCC 6538 was used with the best performing compounds subsequently tested against P. aeruginosa ATCC 27853; these pathogens can then be used as inocula for infection development in the animal work.
To test each compound, the contents of an entire CDC-biofilm reactor (24 coupons/biofilm samples) were used (see FIG. 2 and FIG. 3). These experiments were designed to have multiple internal controls to enable cross-data comparisons (see FIG. 4). Using the methods described above, 4 reactor samples/coupons served as reactor controls. The remaining 20 samples/coupons were split into 4 treatment groups of 5 samples each (n=5).
Two of the treatment groups were the same for each test: one in 1 mM nafcillin (a β-lactam antibiotic) and a second in 1 mM gentamicin. Likewise, the second two treatment groups had either 1 mM nafcillin or 1 mM gentamicin both with the addition of 1 mM of the compound tested. For comparison for most compounds 1 mM ranges from ˜0.15-0.5 mg/ml, 1 or 2 Log 2 dilutions below tests in FIG. 1. For testing of P. aeruginosa biofilms (FIG. 3), the β-lactam cefepime was substituted for nafcillin due to resistance and the gentamicin concentration was reduced from 1 to 0.1 mM because of excessive kill compared with S. aureus biofilms. The other compounds were tested at the same concentrations.
Quantification of the post-treatment residual bioburden was performed by dispersing biofilm bacteria into the 2 ml treatments with its constituent bacteria by vortexing, and sonicating. The antibiotic was removed from a representative aliquot (1 ml) sample, alternating steps of centrifugally pelleting the bacteria, removing 90% of the solution, replacing 90% of the solution and repeating 2 additional times thereby decreasing the antibiotic in solution below the MIC values. The pelleted bacteria were resuspended and measured by the serial dilution plating technique. Thus, the values presented in FIGS. 2, 3 and 4 represent the cumulative change in bioburden from the surface-attached biofilms and bacteria in the treatments.

In the case of gentamicin, the “Aerobic MIC” value in the test on K. pneumoniae (aerobic) amounted to 2 µg/mL; in the test on E. coli (aerobic), 0.5 µg/mL; in the test with MRSA USA300 (aerobic), 2 µg/mL; in the test with A. baumannii it was 2 µg/mL; with P. aeruginosa (aerobic), 2 µg/mL; in the test with S. aureus (aerobic, for 1:1 combinations MIC is the sum of both compounds), 1 µg/mL. Moreover, the “Anaerobic MIC” value is 4 µg/mL in the test with K. pneumoniae (anaerobic); 4 µg/mL in the test on E. coli (anaerobic); 16 µg/mL in the test on MRSA USA300 (anaerobic); 2 µg/mL in the test on P. aeruginosa (anaerobic); 8 µg/mL in the test with S. aureus (anaerobic, for 1:1 combinations MIC is the sum of both compounds). In addition, the “synergy of the companion antibiotic with metronidazole against biofilms” value in [1] is recorded as “synergistic; also recorded: considerably strengthened; also recorded: strong synergy”. Also, the eradication of biofilms entry in [1] is recorded as “failed to eradicate”. The “resistance of the isolate” value with S. epidermidis (isolate used in FIG. 1) is “complete resistance”. In the test with S. aureus (isolate used in biofilm tests), the “MIC against S. aureus” value came to 1 µg/mL.

As for `CN[C@H](CC(C)C)C(=O)N[C@H]1C(=O)N[C@@H](CC(N)=O)C(=O)N[C@H]2C(=O)N[C@H]3C(=O)N[C@H](C(=O)N[C@H](C(=O)O)c4cc(O)cc(O)c4-c4cc3ccc4O)[C@H](O)c3ccc(c(Cl)c3)Oc3cc2cc(c3O[C@@H]2O[C@H](CO)[C@@H](O)[C@H](O)[C@H]2O[C@H]2C[C@](C)(N)[C@H](O)[C@H](C)O2)Oc2ccc(cc2Cl)[C@H]1O` [vancomycin], the eradication of biofilms entry in test [1] is “failed to eradicate”. Further, the “bioburden levels compared to the positive control” value in test [2] (21 days) is recorded as “not statistically significantly different”. Besides, in test [2] (21 days after inoculation, treatment for 10 days, n=5 sheep/group), the “reduction in bacterial bioburden from the initial inocula” value stood at 2.5 log10 units.

Turning to `C[C@H]1COc2c(N3CCN(C)CC3)c(F)cc3c(=O)c(C(=O)O)cn1c23` [Levofloxacin, levofloxacin], the MIC with S. epidermidis (aerobic, read-out: Aerobic MIC) was 0.125 µg/mL; with S. epidermidis (anaerobic, read-out: Anaerobic MIC), 0.125 µg/mL.

Turning to `Cn1c(COP(=O)(NCCBr)NCCBr)cnc1[N+](=O)[O-]` [Evofosfamide], the “anti-biofilm efficacy of hypoxia-activated prodrug compared with antibiotic controls” value in test [1] and in test [3] was “significant activity” throughout.

Turning to `CO/N=C(\C(=O)N[C@@H]1C(=O)N2C(C(=O)[O-])=C(C[N+]3(C)CCCC3)CS[C@H]12)c1csc(N)n1` [cefepime], the “synergy of the companion antibiotic with hypoxia-activated prodrugs” value in test [3] (Gram-negative organisms) is listed as “least synergistic”.

`Nc1n[n+]([O-])c2ccccc2[n+]1[O-]` [Tirapazamine]: the “anti-biofilm efficacy of hypoxia-activated prodrug compared with antibiotic controls” value in test [1] and in test [3] was “significant activity” each time.

Consider `CCOc1ccc2ccccc2c1C(=O)N[C@@H]1C(=O)N2[C@@H]1SC(C)(C)[C@@H]2C(=O)O` [nafcillin], for which the “synergy of the companion antibiotic with metronidazole against biofilms” value in [1] is recorded as “did not display synergy nor antagonism; also recorded: least synergistic”.

For the molecule `O=C1OC(CN2CCOCC2)CN1/N=C/c1ccc([N+](=O)[O-])o1` (stereo not drawn) [furaltadone], the “anti-biofilm efficacy of hypoxia-activated prodrug compared with antibiotic controls” value in [1] and in test [3] was “remarkable efficacy” throughout. Also, in [1] (paired with β-lactam (nafcillin; cefepime for P. aeruginosa)), the “anti-biofilm efficacy with β-lactam antibiotics” value was “considerable efficacy”.

Take `NC(=O)N/N=C/c1ccc([N+](=O)[O-])o1` [nitrofurazone]: the “anti-biofilm efficacy of hypoxia-activated prodrug compared with antibiotic controls” value in [1] is listed as “showed benchtop anti-biofilm utility”.
